This note sets out measurements from patent US4319028A, “7-(2-(Substituted benzoyl)amino)acetamido)cephalosporins” (Eli Lilly and Company, priority 1976, dated 1982).

Converted amounts (≈) assume the structure as drawn. Where two headings read alike, the source gives them in different places. Where only a bound is given, the exact number is not on record here.

A word on the pKa: it is the pH at which an ionisable group is half protonated.

Data set [1] has as its system Shigella sp. Put plainly: Antibiotic activity (MIC), Gradient Plate in vitro method, Shigella sp. In kind it is cell-based. The following applies: read-out: Minimum Inhibitory Concentration. From the text:
(§1) The antibiotic activity of the cephalosporin compounds of the present invention is illustrated by the data presented in Table I for representative compounds. The values in the table are the minimum inhibitory concentrations (MIC) for the test compounds against the indicated microorganisms. The MIC values were obtained in the Gradient Plate in vitro method for determining antibiotic activity.

Data set [2] deals with Escherichia coli. Put plainly: Antibiotic activity (MIC), Gradient Plate in vitro method, Escherichia coli. In kind it is cell-based. The following applies: read-out: Minimum Inhibitory Concentration. From the text:
(§2) The values in the table are the minimum inhibitory concentrations (MIC) for the test compounds against the indicated microorganisms. The MIC values were obtained in the Gradient Plate in vitro method for determining antibiotic activity.

The subject of data set [3] is Klebsiella pneumoniae. Put plainly: Antibiotic activity (MIC), Gradient Plate in vitro method, Klebsiella pneumoniae. Conditions: read-out: Minimum Inhibitory Concentration. In kind it is cell-based.
Text: as §2

For data set [4], the system named is Aerobacter Aerogenes. Put plainly: Antibiotic activity (MIC), Gradient Plate in vitro method, Aerobacter Aerogenes. Type of data set: cell-based. The following applies: Klebsiella aerogenes, read-out: Minimum Inhibitory Concentration.
Text: as §2

Data set [5] has as its system Salmonella heidelberg. Put plainly: Antibiotic activity (MIC), Gradient Plate in vitro method, Salmonella heidelberg. In kind it is cell-based. Conditions: Salmonella enterica, read-out: Minimum Inhibitory Concentration.
Text: as §2

The test system of data set [6] is Pseudomonas Aeruginosa. Put plainly: Antibiotic activity (MIC), Gradient Plate in vitro method, Pseudomonas Aeruginosa. Type of data set: cell-based. Conditions: read-out: Minimum Inhibitory Concentration.
Text: as §2

Data set [7] concerns Serratia marcescens. Put plainly: Antibiotic activity (MIC), Gradient Plate in vitro method, Serratia marcescens. Type of data set: cell-based. Conditions: read-out: Minimum Inhibitory Concentration.
Text: as §1

The test system of data set [8] is V41 (penicillin resistant Staphylococcus). Put plainly: Antibiotic activity (MIC), Gradient Plate in vitro method, V41. In kind it is cell-based. The following applies: read-out: Minimum Inhibitory Concentration.
Text: as §1
(§3) ^1 Test organisms V41, V32, and V84 are penicillin resistant

Data set [9] has as its system V32 (penicillin resistant Staphylococcus). Put plainly: Antibiotic activity (MIC), Gradient Plate in vitro method, V32. Type of data set: cell-based. Conditions: read-out: Minimum Inhibitory Concentration.
Text: as §1, §3

Data set [10] has as its system X466 (methicillin resistant Staphylococcus). Put plainly: Antibiotic activity (MIC), Gradient Plate in vitro method, X466. Type of data set: cell-based. Conditions: read-out: Minimum Inhibitory Concentration. From the text:
The antibiotic activity of the cephalosporin compounds of the present invention is illustrated by the data presented in Table I for representative compounds. The values in the table are the minimum inhibitory concentrations (MIC) for the test compounds against the indicated microorganisms. The MIC values were obtained in the Gradient Plate in vitro method for determining antibiotic activity. […]

In data set [11] the test system is V84 (penicillin resistant Staphylococcus). Put plainly: Antibiotic activity (MIC), Gradient Plate in vitro method, V84. In kind it is cell-based. Conditions: read-out: Minimum Inhibitory Concentration.
Text: as §1, §3

Data set [12] is described as follows: Titration (pKa). Type of data set: physicochemical. The following applies: 66% dmf-34% h2o, titration (66% DMF-34% H2O).
Where [13] appears, read: first pKa, read-out: pKa (first value).
[14] abbreviates: second pKa, read-out: pKa (second value).
Where [15] appears, read: Gradient Plate in vitro, V32, penicillin resistant Staphylococcus.
Setting [16] is: Gradient Plate in vitro, V41, penicillin resistant Staphylococcus.
Where [17] appears, read: Gradient Plate in vitro, V84, penicillin resistant Staphylococcus.
Setting [18] is: third pKa, read-out: pKa (third value).

In the case of `Cc1nnc(SCC2=C(C(=O)O)N3C(=O)C(NC(=O)[C@H](NC(=O)c4cccc(O)c4)c4ccc(O)cc4)C3SC2)s1` (stereo partly drawn) [Example 10, 7-[D-[2-(4-Hydroxyphenyl)-2-[(3-hydroxybenzoyl)amino]-acetyl]amino]-3-[[(5-methyl-1,3,4-thiadiazol-2-yl)thio]-methyl]-3-cephem-4-carboxylic acid], the MIC in data set [1] is 10.4 µg/mL (≈ 16.9 µM); in [2] it was 28.8 µg/mL (≈ 46.9 µM); in data set [3] it was 16.8 µg/mL (≈ 27.4 µM); in [4] it was 65.5 µg/mL (≈ 107 µM); in [5], 26 µg/mL (≈ 42.4 µM); in data set [6] it was over 200 µg/mL. For the same compound, the MIC was over 200 µg/mL in [7]; 1 µg/mL (≈ 1.63 µM) in data set [8] (Staphylococcus); 1 µg/mL (≈ 1.63 µM) in data set [9] (Staphylococcus); 92 µg/mL (≈ 150 µM) in data set [10]; 1 µg/mL (≈ 1.63 µM) in [11] (Staphylococcus). Besides, the figures for the pKa in data set [12] (setting [13]) and in data set [12] (setting [14]) were 5.02 and 11.9, respectively.
With `Cc1nnc(SCC2=C(C(=O)O)N3C(=O)C(NC(=O)[C@H](NC(=O)c4ccc(O)c(Cl)c4)c4ccc(O)cc4)C3SC2)s1` (stereo partly drawn) [Example 11, 7-[D-[2-(4-Hydroxyphenyl)-2-[(3-chloro-4-hydroxybenzoyl)-amino]acetyl]amino]-3-[[(5-methyl-1,3,4-thiadiazol-2-yl)-thio]methyl]-3-cephem-4-carboxylic acid], the MIC stood at 9.6 µg/mL (≈ 14.8 µM) in [1]; 11.2 µg/mL (≈ 17.3 µM) in data set [2]; 8.9 µg/mL (≈ 13.7 µM) in [3]; 36.8 µg/mL (≈ 56.8 µM) in [4]; 25 µg/mL (≈ 38.6 µM) in data set [5]; 124 µg/mL (≈ 191 µM) in data set [6]. Moreover, the MIC was found to be 80 µg/mL (≈ 123 µM) in [7]; 1 µg/mL (≈ 1.54 µM) in data set [8] (Staphylococcus); 1.1 µg/mL (≈ 1.7 µM) in [9] (setting [15]); 122 µg/mL (≈ 188 µM) in [10]; 1 µg/mL (≈ 1.54 µM) in data set [11] (Staphylococcus). Moreover, the pKa in data set [12] (setting [13]) is 4.9; in [12] (setting [14]) it was 9.5.
As to `Cc1nnc(SCC2=C(C(=O)O)N3C(=O)C(NC(=O)[C@H](NC(=O)c4cc(O)c(O)c(O)c4O)c4ccc(O)cc4)C3SC2)s1` (stereo partly drawn) [Example 14, 7-[D-[2-(4-Hydroxyphenyl)-2-[(2,3,4,5-tetrahydroxybenzoyl)amino]acetyl]amino]-3-[[(1-methyl-1,3,4-thiadiazol-2-yl)thio]methyl]-3-cephem-4-carboxylic acid], the MIC in data set [1] worked out at 5.7 µg/mL (≈ 8.61 µM); in data set [2], 10.1 µg/mL (≈ 15.3 µM); in data set [3], 5 µg/mL (≈ 7.56 µM); in data set [4] it was 9.1 µg/mL (≈ 13.8 µM); in data set [5] it was 3 µg/mL (≈ 4.53 µM); in data set [6] it was 92 µg/mL (≈ 139 µM). Also, the MIC in data set [7] was over 200 µg/mL; in data set [8] (setting [16]), 7.2 µg/mL (≈ 10.9 µM); in [9] (setting [15]), 7.1 µg/mL (≈ 10.7 µM); in [10], 134 µg/mL (≈ 203 µM); in [11] (setting [17]) it was 6.2 µg/mL (≈ 9.37 µM). Also, the pKa was 4.98 in [12] (setting [13]), 7.63 in [12] (setting [14]) and 9.69 in data set [12] (setting [18]).
As to `Cn1nnnc1SCC1=C(C(=O)O)N2C(=O)C(NC(=O)[C@H](NC(=O)c3cc(O)ccc3O)c3ccc(O)cc3)C2SC1` (stereo partly drawn) [Example 15, 7-[D-[2-(4-Hydroxyphenyl)-2-[(2,5-dihydroxybenzoyl)-amino]acetyl]amino]-3-[[(1-methyltetrazol-5-yl)thio]-methyl]-3-cephem-4-carboxylic acid], the MIC in data set [1] is 26.5 µg/mL (≈ 43.2 µM); in [2], 28 µg/mL (≈ 45.6 µM); in [3], 32.2 µg/mL (≈ 52.5 µM); in data set [4], 43.5 µg/mL (≈ 70.9 µM); in [5], 17.8 µg/mL (≈ 29 µM); in [6], over 200 µg/mL. Besides, the MIC in [7] was over 200 µg/mL; in [8] (setting [16]) it was 15 µg/mL (≈ 24.4 µM); in data set [9] (setting [15]) it was 13 µg/mL (≈ 21.2 µM); in data set [10], over 200 µg/mL; in data set [11] (setting [17]) it was 10 µg/mL (≈ 16.3 µM). In addition, the pKa in data set [12] (setting [13]) was found to be 5.08; in [12] (setting [14]), 11; in [12] (setting [18]), 12.5.
On to `Cn1nnnc1SCC1=C(C(=O)O)N2C(=O)C(NC(=O)[C@H](NC(=O)c3cc(O)cc(O)c3)c3ccc(O)cc3)C2SC1` (stereo partly drawn) [Example 16, 7-[D-[2-(4-Hydroxyphenyl)-2-[(3,5-dihydroxybenzoyl)-amino]acetyl]amino]-3-[[(1-methyltetrazol-5-yl)thio]-methyl]-3-cephem-4-carboxylic acid], for which the MIC is 9.8 µg/mL (≈ 16 µM) in [1]; 16.5 µg/mL (≈ 26.9 µM) in data set [2]; 17.4 µg/mL (≈ 28.4 µM) in data set [3]; 22 µg/mL (≈ 35.9 µM) in [4]; 8.1 µg/mL (≈ 13.2 µM) in [5]; over 200 µg/mL in data set [6]. For the same compound, the MIC in data set [7] was over 200 µg/mL; in data set [8] (setting [16]), 4.5 µg/mL (≈ 7.33 µM); in data set [9] (setting [15]) it was 1.9 µg/mL (≈ 3.1 µM); in data set [10], 112 µg/mL (≈ 183 µM); in [11] (setting [17]) it was 2.7 µg/mL (≈ 4.4 µM). The pKa in data set [12] (setting [13]) is 5.22; in [12] (setting [14]) it was 11.7; in data set [12] (setting [18]), at least 12.
With `Cn1nnnc1SCC1=C(C(=O)O)N2C(=O)C(NC(=O)[C@H](NC(=O)c3ccc(O)cc3O)c3ccc(O)cc3)C2SC1` (stereo partly drawn) [Example 17, 7-[D-[2-(4-Hydroxyphenyl)-2-[(2,4-dihydroxybenzoyl)-amino]-acetyl]amino]-3-[[(1-methyltetrazol-5-yl)thio]-methyl]-3-cephem-4-carboxylic acid], the MIC in [1] was 9.2 µg/mL (≈ 15 µM); in data set [2], 18 µg/mL (≈ 29.3 µM); in data set [3], 15.5 µg/mL (≈ 25.3 µM); in data set [4], 36 µg/mL (≈ 58.7 µM); in [5] it was 14 µg/mL (≈ 22.8 µM); in [6], 92 µg/mL (≈ 150 µM). Also, the MIC in data set [7] is over 200 µg/mL; in [8] (Staphylococcus) it was 4 µg/mL (≈ 6.52 µM); in [9] (setting [15]) it was 3.5 µg/mL (≈ 5.7 µM); in data set [10], 102 µg/mL (≈ 166 µM); in data set [11] (setting [17]) it was 2.4 µg/mL (≈ 3.91 µM). Moreover, the figures for the pKa in data set [12] (setting [13]), in data set [12] (setting [14]) and in data set [12] (setting [18]) were 4.97, 9.58 and 12.1, respectively.
As for `O=C(O)C1=C(Cl)CSC2C(NC(=O)[C@H](NC(=O)c3cccc(O)c3O)c3ccccc3)C(=O)N12` (stereo partly drawn) [Example 18, 7-[D-[2-Phenyl-2-[(2,3-dihydroxybenzoyl)amino]acetyl]-amino]-3-chloro-3-cephem-4-carboxylic acid], the MIC in data set [1] was 18 µg/mL (≈ 35.7 µM); in data set [2], 82 µg/mL (≈ 163 µM); in data set [3], 7 µg/mL (≈ 13.9 µM); in [4], 50 µg/mL (≈ 99.2 µM); in data set [5] it was 1 µg/mL (≈ 1.98 µM); in [6], over 200 µg/mL. The MIC in data set [7] is over 200 µg/mL; in data set [8] (setting [16]), 24 µg/mL (≈ 47.6 µM); in [9] (setting [15]), 21.5 µg/mL (≈ 42.7 µM); in [10], over 200 µg/mL; in [11] (setting [17]) it was 14.2 µg/mL (≈ 28.2 µM). The figures for the pKa in data set [12] (setting [13]) and in data set [12] (setting [14]) were 4.55 and 3.84, respectively.
In the case of `CC(=O)OCC1=C(C(=O)O)N2C(=O)C(NC(=O)C(NC(=O)c3cccc(O)c3O)c3ccccc3)C2SC1` [Example 19, 7-[D-[2-Phenyl-2-[(2,3-dihydroxybenzoyl)amino]acetyl]-amino]-3-acetoxymethyl-3-cephem-4-carboxylic acid], the MIC in [1] was 50 µg/mL (≈ 92.3 µM); in data set [2] it was over 200 µg/mL; in [3], 7.4 µg/mL (≈ 13.7 µM); in [4] it was over 200 µg/mL; in data set [5], 1 µg/mL (≈ 1.85 µM); in [6] it was 56 µg/mL (≈ 103 µM). In addition, the MIC is over 200 µg/mL in data set [7]; 17 µg/mL (≈ 31.4 µM) in [8] (setting [16]); 16.2 µg/mL (≈ 29.9 µM) in data set [9] (setting [15]); over 200 µg/mL in [10]; 14.7 µg/mL (≈ 27.1 µM) in data set [11] (setting [17]). The figures for the pKa in [12] (setting [13]) and in data set [12] (setting [14]) were 5 and 8.72, respectively.
